Results taken from US12410220B2, “Modulation of mammalian cell lineage by synthetic immodulins” (priority 2021, dated 2025).
Marks after values point to notes of the source that are not given here. Peptide text beside a SMILES is read from it.

Experiments:
[1] = target: T1, AA111-228 DNA-binding domain of RXR-alpha (RXRa-DBD) (Homo sapiens, UniProt P19793); assay: Experiment 4A binding to RXRa-DBD; settings: 1 ug/well RXRa-DBD; 800 ng/well SA488-labelled peptide, 60 min; background subtracted
T1 construct: purchased Abcam, Cambridge, MA
T1 sequence (P19793 111-228): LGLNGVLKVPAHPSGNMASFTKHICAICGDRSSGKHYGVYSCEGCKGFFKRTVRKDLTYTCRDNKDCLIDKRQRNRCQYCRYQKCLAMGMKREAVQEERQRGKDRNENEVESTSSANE
Method: Experiment 4A. Binding of immodulin peptides to AA111-228 DNA-binding domain of RXR-alpha (RXRa-DBD). 1 ug/well recombinant RXRa-DBD (Abcam, Cambridge, MA) was adsorbed to wells of a 96-well plate for 60 minutes at room temperature, then blocked with 200 uL 1% bovine serum albumin (BSA) in PBS buffer overnight. Plate was washed and 800 ng/well Streptavidin-Alexa 488 conjugate (SA488)-labelled immX peptide was added. The plate was incubated for 60 min at room temperature, washed and counted in a standard fluorometer (excitation/emission 485/525 nm). Background (buffer alone) was subtracted.

[2] = Ferric iron-binding assay of biotinylated immodulin peptides; settings: N-terminally biotinylated peptide, 400 ng per well, 60 min room temperature; immX3AVD = 100
Method in brief: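 N-terminally biotinylated peptides (400 ng/well) were tested for ferric iron binding in two formats: streptavidin-A488 complexes on Fe3+-charged NTA plates, or streptavidin-captured peptide probed with FITC-NTA·Fe3+. Each step was 60 min at room temperature with fluorescence read at 525 nm. Values are normalized to immX3AVD control (100) and averaged across both protocols.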

[3] = target: T2, RXR-alpha LBD (Homo sapiens, UniProt P19793); assay: Experiment 4B binding to RXR-alpha LBD; settings: 100 ng/well protein; 800 ng/well SA488-labelled peptide, 2 hours
T2 construct: purchased Abcam, Cambridge, MA
T2 sequence (P19793 227-458 limits assumed): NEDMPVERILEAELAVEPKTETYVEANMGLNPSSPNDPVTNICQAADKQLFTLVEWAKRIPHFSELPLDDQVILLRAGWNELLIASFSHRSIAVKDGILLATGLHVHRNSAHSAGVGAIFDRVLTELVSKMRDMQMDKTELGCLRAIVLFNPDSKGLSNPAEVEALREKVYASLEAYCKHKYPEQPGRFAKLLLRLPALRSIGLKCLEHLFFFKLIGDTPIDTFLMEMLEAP
Method: (§1) Experiment 4B. Binding of immodulin peptides to RXR isoforms and domains. 100 ng/well recombinant human RXRa-DBD or RXRa-LBD, or 400 ng/well full length RXR-alpha, RXR-beta, RXR-gamma or PPAR-gamma (Abcam, Cambridge, MA) was adsorbed to wells of a 96-well plate for 60 minutes at room temperature, then blocked with 200 uL 1% BSA in PBS buffer overnight. The plate was washed with PBS and 800 ng/well Streptavidin-Alexa 488 conjugate (SA488)-labelled peptide was added. The plate was incubated for 2 hours at room temperature, washed and counted in a fluorometer (excitation/emission 485/525 nm). Significant binding above background is also shown (**p<0.05). […] When tested against domains of RXR-alpha, these peptides bind the DNA-binding domain (DBD) better than the ligand-binding domain (LBD).

[4] = target: T3, RXR-beta (Homo sapiens, UniProt P28702); assay: Experiment 4B binding to full length RXR-beta; settings: 400 ng/well protein; 800 ng/well SA488-labelled peptide, 2 hours
T3 construct: 400 ng/well full length RXR-alpha, RXR-beta, RXR-gamma or PPAR-gamma; purchased Abcam, Cambridge, MA
T3 sequence (P28702 1-533): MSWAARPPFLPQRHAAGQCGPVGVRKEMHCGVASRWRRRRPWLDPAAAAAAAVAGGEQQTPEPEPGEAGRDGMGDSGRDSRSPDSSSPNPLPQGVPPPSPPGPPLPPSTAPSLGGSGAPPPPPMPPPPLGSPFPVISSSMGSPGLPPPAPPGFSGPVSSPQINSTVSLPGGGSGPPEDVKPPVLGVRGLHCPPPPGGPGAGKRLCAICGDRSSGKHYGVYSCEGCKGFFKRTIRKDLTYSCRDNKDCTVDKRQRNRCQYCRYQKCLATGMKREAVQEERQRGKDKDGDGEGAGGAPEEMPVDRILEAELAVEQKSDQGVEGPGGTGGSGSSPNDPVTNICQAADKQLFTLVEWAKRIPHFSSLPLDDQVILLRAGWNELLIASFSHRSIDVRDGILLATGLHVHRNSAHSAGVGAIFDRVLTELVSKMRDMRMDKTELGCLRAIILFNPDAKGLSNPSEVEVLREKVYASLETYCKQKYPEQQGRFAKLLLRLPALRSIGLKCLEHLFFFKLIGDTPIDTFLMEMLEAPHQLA
Method: as §1

[5] = target: T4, RXR-alpha DBD (Homo sapiens, UniProt P19793); assay: Experiment 4B binding to RXR-alpha DBD; settings: 100 ng/well protein; 800 ng/well SA488-labelled peptide, 2 hours
T4 construct: purchased Abcam, Cambridge, MA
T4 sequence (P19793 111-228): T1 sequence (P19793 111-228)
Method: as §1

[6] = target: T5, Nur77 (NR4A1) (Homo sapiens, UniProt P22736); assay: Experiment 4C binding to full-length Nur77; settings: 400 ng/well Nur77; 333 ng/well SA488-labelled peptide, 60 min; background subtracted
T5 construct: purchased Abcam Inc, Cambridge, MA
T5 sequence (P22736 whole entry): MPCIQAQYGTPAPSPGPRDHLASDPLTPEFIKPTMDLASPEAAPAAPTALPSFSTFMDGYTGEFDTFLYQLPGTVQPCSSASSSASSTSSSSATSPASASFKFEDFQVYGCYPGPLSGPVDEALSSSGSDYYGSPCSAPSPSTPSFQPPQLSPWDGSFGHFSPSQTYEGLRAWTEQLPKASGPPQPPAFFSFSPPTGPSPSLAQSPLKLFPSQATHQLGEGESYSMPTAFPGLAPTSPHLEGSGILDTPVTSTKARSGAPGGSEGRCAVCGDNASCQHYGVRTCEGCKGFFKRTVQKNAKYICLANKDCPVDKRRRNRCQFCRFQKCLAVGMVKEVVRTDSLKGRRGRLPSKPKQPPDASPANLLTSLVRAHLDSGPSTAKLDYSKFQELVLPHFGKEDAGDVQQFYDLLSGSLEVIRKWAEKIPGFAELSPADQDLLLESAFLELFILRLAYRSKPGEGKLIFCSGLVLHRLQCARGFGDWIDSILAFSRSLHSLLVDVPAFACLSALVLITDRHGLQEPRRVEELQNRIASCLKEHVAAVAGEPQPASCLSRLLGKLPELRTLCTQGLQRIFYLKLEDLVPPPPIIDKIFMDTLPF
Method: 400 ng/well recombinant human Nur77 protein (NR4A1) purchased from Abcam Inc, Cambridge, MA, was adsorbed to wells of a 96-well plate for 90 minutes at room temperature, then blocked with 200 uL 1% BSA in PBS buffer overnight. The plate was washed with PBS and then 333 ng/well Streptavidin-Alexa 488 conjugate (SA488)-labelled imm3 or imm4 peptide was added. The plate was incubated for 60 min at room temperature, washed and counted in a standard fluorometer (excitation/emission 485/525 nm). Background (buffer alone) was subtracted.

| SMILES | Fluorescence, binding to RXRa-DBD [1] | Ferric iron binding, fluorescence standardized to immX3AVD control peptide (100), Avg ± SD [2] | Binding to RXR-alpha LBD relative to imm3 binding (=100) [3] | Binding to RXR-beta relative to imm3 binding (=100) [4] | Binding to RXR-alpha DBD relative to imm3 binding (=100) [5] | Binding to Nur77 (NR4A1), normalized to imm3 binding=100 [6] |
| --- | --- | --- | --- | --- | --- | --- |
| N=C(N)NCCC[C@H](NC(=O)CNC(=O)[C@H](CCCCN)NC(=O)[C@H](CO)NC(=O)[C@@H]1CCCN1C(=O)[C@H](CCCNC(=N)N)NC(=O)[C@H](CS)NC(=O)[C@H](CCC(N)=O)NC(=O)[C@H](CCCCN)NC(=O)[C@H](CCCCN)NC(=O)[C@H](CCCCN)NC(=O)[C@H](Cc1ccc(O)cc1)NC(=O)[C@H](Cc1ccccc1)NC(=O)CNC(=O)[C@H](CCCCN)NC(=O)[C@@H](N)CCCCN)C(=O)N[C@@H](CCCCN)C(=O)N[C@@H](CCCNC(=N)N)C(=O)NCC(=O)N[C@@H](Cc1ccccc1)C(=O)N[C@@H](CS)C(=O)N[C@@H](Cc1c[nH]c2ccccc12)C(=O)O [imm3] (H-KKGFYKKKQCRPSKGRKRGFCW-OH; N-terminus and C-terminus assumed) | 6,572±129 | 66.7 ± 4.7** | 0.6 ± 1.5 | 2.9 ± 1.1 | 22.2 ± 2.4** | 100.0 ± 9.3 |
| CC(C)C[C@H](NC(=O)[C@H](C)NC(=O)[C@@H]1CCCN1C(=O)[C@H](Cc1c[nH]cn1)NC(=O)[C@H](CS)NC(=O)[C@H](CCC(N)=O)NC(=O)[C@H](CCCCN)NC(=O)[C@@H]1CCCN1C(=O)[C@H](Cc1c[nH]cn1)NC(=O)[C@H](Cc1ccccc1)NC(=O)[C@H](CC(N)=O)NC(=O)CNC(=O)[C@H](CC(N)=O)NC(=O)[C@@H](N)CCCNC(=N)N)C(=O)N[C@@H](CC(=O)O)C(=O)NCC(=O)N[C@@H](CCC(N)=O)C(=O)N[C@@H](CCCNC(=N)N)C(=O)NCC(=O)N[C@@H](CCCCN)C(=O)N[C@@H](CS)C(=O)N[C@@H](Cc1c[nH]c2ccccc12)C(=O)O [imm4] (H-RNGNFHPKQCHPALDGQRGKCW-OH; N-terminus and C-terminus assumed) | 27±31 | 3.3 ± 1.5** | 3.0 ± 1.3 | 0.3 ± 1.2 | 3.2 ± 2.0 | 0.3 ± 8.9 |
| CC[C@H](C)[C@H](NC(=O)CNC(=O)[C@H](CCCNC(=N)N)NC(=O)[C@H](CCCCN)NC(=O)[C@H](CCCNC(=N)N)NC(=O)CNC(=O)[C@H](CCCNC(=N)N)NC(=O)[C@H](CO)NC(=O)[C@@H]1CCCN1C(=O)[C@H](CCCCN)NC(=O)[C@H](CS)NC(=O)[C@H](CCC(N)=O)NC(=O)[C@H](CCCCN)NC(=O)[C@H](CCCNC(=N)N)NC(=O)[C@H](CCCCN)NC(=O)[C@H](Cc1ccc(O)cc1)NC(=O)[C@H](Cc1ccccc1)NC(=O)CNC(=O)[C@H](CCCCN)NC(=O)[C@@H](N)CCCNC(=N)N)C(=O)N[C@@H](CS)C(=O)N[C@@H](Cc1c[nH]c2ccccc12)C(=O)O [imm5] (H-RKGFYKRKQCKPSRGRKRGICW-OH; N-terminus and C-terminus assumed) | 6,802±336 | 71.6 ± 6.6** | 1.8 ± 1.9 | 4.0 ± 0.8 | 22.7 ± 3.1** |  |
| N=C(N)NCCC[C@H](NC(=O)[C@H](CCCNC(=N)N)NC(=O)[C@H](CCC(N)=O)NC(=O)CNC(=O)[C@H](CCC(N)=O)NC(=O)[C@H](CO)NC(=O)[C@H](CO)NC(=O)[C@H](CCCNC(=N)N)NC(=O)[C@H](CS)NC(=O)[C@H](CCC(N)=O)NC(=O)[C@H](CCCNC(=N)N)NC(=O)[C@H](CCCCN)NC(=O)[C@H](CCCNC(=N)N)NC(=O)[C@H](Cc1ccc(O)cc1)NC(=O)[C@H](Cc1ccccc1)NC(=O)CNC(=O)[C@H](CCCNC(=N)N)NC(=O)[C@@H](N)Cc1c[nH]cn1)C(=O)NCC(=O)N1CCC[C@H]1C(=O)N[C@@H](CS)C(=O)N[C@@H](Cc1c[nH]c2ccccc12)C(=O)O [imm6] (H-HRGFYRKRQCRSSQGQRRGPCW-OH; N-terminus and C-terminus assumed) | 587±192 | 65.9 ± 4.9** | 1.6 ± 1.4 | 4.7 ± 0.4 | 22.9 ± 2.1** |  |
